Values quoted from earlier work as cited in patent US10689308B2, “Solvent for thiophosphoric triamide or dicyandiamide solutions, and related methods” (RHODIA OPERATIONS, priority 2014, dated 2020).

Conditions: dicyandiamide in a solid form; background statement

- solubility in water: about 41 grams per liter
SMILES: N#CNC(=N)N [Dicyandiamide]
